Assay results reported in patent US20130078613A1, “Selection of HCV Treatment” (ROCHE MOLECULAR SYSTEMS, priority 2011, published 2013).
Marks after values point to notes of the source that are not given here.

Key:
CHC genotype 1 or 4 [1] = test: Clinical Study NV20536; type: in vivo, human; conditions: for SVR-12 and SVR-24: across RVR-guided arms; for relapse / SVR-12 (%) / SVR-12 n/N / SVR-24 (%) / SVR-24 n/N: sRVR patients
From the text: (§1) The term “response” to treatment is a desirable response to the administration of an agent. Virological endpoints included “early virological response” (EVR), defined as ≧2-log drop in serum HCV RNA from baseline to week 12 (by Cobas Amplicor HCV Monitor Test, v2.0, limit of quantitation 600 IU/mL), complete EVR (cEVR) defined as undetectable HCV RNA (<15 IU/mL) in serum (by Cobas Amplicor HCV Test v2.0, […]) or and “sustained virological response” (SVR), defined as undetectable HCV RNA (<15 IU/mL) at the end of either a 12-week (SVR-12) or a 24-week (SVR-24) untreated follow-up period. The term “sustained rapid virological response” (sRVR) refers to undetectable HCV RNA (<15 IU/mL) during the period of 4 weeks and 22 weeks of treatment. The term “extended rapid virological response” (eRVR) refers to undetectable HCV RNA (<15 IU/mL) during the period of between 4 weeks and 20 weeks of treatment.
Study NV20536 was designed to determine the optimal dose (500 or 1000 mg twice daily [BID]) and duration (8 or 12 weeks) of RO5024048 in combination with PEG-IFN/RBV in treatment-naïve CHC genotype 1 or 4 patients. Patients enrolled in Study NV20536 were randomized to one of five treatment groups (FIG. 1A) (approximately 80 patients per treatment group). In the response-guided treatment groups, patients with a sustained RVR (sRVR, defined as undetectable HCV RNA from week 4-22) stopped all therapy at Week 24.
Patients received double blinded experimental treatment with RO5024048 500 mg BID and standard of care treatment (SOC, Pegasys 180 μg sc qw+Copegus 1000 mg (<75 kg) or 1200 mg (≧75 kg) po qd) or RO5024048 1000 mg BID and SOC respectively, for 12 weeks followed by SOC for 12 weeks. Patients who achieve an RVR, defined as undetectable HCV RNA at week 4, and remain undetectable through week 22 stopped all treatment at week 24. Non-RVR patients received SOC for an additional 24 weeks for a total treatment duration of 48 weeks.
Patients received double blinded experimental treatment with RO5024048 1000 mg BID and SOC for 8 weeks followed by SOC for 16 weeks. Patients who achieve an RVR defined as undetectable HCV RNA at week 4, and remain undetectable through week 22 stopped all treatment at week 24. Non-RVR patients received SOC for an additional 24 weeks for a total treatment duration of 48 weeks. […]
(§2) The Roche Clinical Repository (RCR) is an optional program that requires separate consent; data are anonymized to assure patient privacy. The RCR DNA samples were used to determine IL28B status using TaqMan Real-Time PCR for rs12979860. Efficacy endpoints were summarized for the two subgroups, CC vs. non-CC (CT and TT).

[2] = extensively converted to RO4995855; cited from earlier work
NS5B (S282T) = biological target: T1, NS5B (S282T) (Hepatitis C virus genotype 1b, UniProt Q9WMX2, S2701T); conditions: sequential passage of replicon cells; cited from earlier work
T1 construct: Amino acid substitution in NS5B (S282T)

HCV [3] = conditions: combination with PEG-IFN and RBV; cited from earlier work
[4] = biological target: NS5B-directed HCV polymerase (Hepatitis C virus genotype 1b, UniProt Q9WMX2); conditions: ref [7]; cited from earlier work
HCV genotypes (1-4) = conditions: four main genotypes (1-4); cited from earlier work
CHC genotype 1 or 4 [5] = test: Clinical Study NV22621; type: in vivo, human
From the text: as §1
Study NV22621 was designed to determine the safety and efficacy of longer treatment duration (24 weeks) of 1000 mg BID RO5024048 in combination with PEG-IFN/RBV in treatment naïve CHC genotype 1 or 4 patients. Patients enrolled in Study NV22621 were randomized to one of two treatment groups (FIG. 1B) (approximately 80 patients per treatment group). In the response-guided treatment group, patients with a sustained RVR (sRVR, defined as undetectable HCV RNA from week 4-22) stopped all therapy at Week 24.
as §2, with “PCR.” for “PCR for rs12979860.”

HCV [6] = conditions: RBV monotherapy; cited from earlier work
[7] = Group A, 500 mg 12 wks + P/R RVR-guided, IL28B CC
[8] = Group A, 500 mg 12 wks + P/R RVR-guided, IL28B NonCC
[9] = Group A, 500 mg 12 wks + P/R RVR-guided, Total
[10] = Group B, 1000 mg 8 wks + P/R RVR-guided, IL28B CC
[11] = Group B, 1000 mg 8 wks + P/R RVR-guided, IL28B NonCC
[12] = Group B, 1000 mg 8 wks + P/R RVR-guided, Total
[13] = Group C, 1000 mg 12 wks + P/R RVR-guided, IL28B CC
[14] = Group C, 1000 mg 12 wks + P/R RVR-guided, IL28B NonCC
[15] = Group C, 1000 mg 12 wks + P/R RVR-guided, Total
[16] = Group A, 1000 mg 24 wks + P/R RVR-guided, Total, sRVR patients

Sequence of NS5B-directed HCV polymerase (Q9WMX2 2420-3010): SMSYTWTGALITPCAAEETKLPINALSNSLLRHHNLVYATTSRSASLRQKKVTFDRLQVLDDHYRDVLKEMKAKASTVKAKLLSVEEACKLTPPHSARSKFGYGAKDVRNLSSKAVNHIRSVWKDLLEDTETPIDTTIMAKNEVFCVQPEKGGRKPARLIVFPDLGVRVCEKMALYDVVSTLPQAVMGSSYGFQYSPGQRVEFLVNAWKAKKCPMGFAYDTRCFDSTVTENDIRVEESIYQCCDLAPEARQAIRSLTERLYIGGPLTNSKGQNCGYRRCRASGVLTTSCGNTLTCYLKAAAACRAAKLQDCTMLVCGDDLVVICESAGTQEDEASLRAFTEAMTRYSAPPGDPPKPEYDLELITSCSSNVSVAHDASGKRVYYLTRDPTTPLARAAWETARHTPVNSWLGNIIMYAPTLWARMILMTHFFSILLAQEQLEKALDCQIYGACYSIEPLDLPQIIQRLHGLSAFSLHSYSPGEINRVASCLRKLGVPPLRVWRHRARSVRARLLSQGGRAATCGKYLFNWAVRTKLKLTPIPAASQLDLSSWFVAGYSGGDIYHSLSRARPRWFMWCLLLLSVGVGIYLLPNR
T1 sequence (Q9WMX2 2420-3010 S2701T): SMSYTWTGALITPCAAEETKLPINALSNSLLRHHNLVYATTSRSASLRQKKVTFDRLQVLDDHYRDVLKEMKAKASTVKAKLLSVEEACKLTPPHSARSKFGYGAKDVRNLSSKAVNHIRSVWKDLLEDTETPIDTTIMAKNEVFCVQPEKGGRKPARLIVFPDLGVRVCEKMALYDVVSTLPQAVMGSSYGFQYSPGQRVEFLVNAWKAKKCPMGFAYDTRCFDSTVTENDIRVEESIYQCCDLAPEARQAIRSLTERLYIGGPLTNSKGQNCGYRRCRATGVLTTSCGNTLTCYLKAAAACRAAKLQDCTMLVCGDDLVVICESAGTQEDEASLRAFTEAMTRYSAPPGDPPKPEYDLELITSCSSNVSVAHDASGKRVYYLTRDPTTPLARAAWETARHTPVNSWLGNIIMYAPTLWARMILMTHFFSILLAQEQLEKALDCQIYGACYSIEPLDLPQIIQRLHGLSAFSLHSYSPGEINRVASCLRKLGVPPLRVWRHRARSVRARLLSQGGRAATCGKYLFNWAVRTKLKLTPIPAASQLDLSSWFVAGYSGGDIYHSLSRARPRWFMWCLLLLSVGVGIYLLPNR

For `CC(C)C(=O)OC[C@H]1O[C@@H](n2ccc(N)nc2=O)[C@](C)(F)[C@@H]1OC(=O)C(C)C` [RO5024048, mericitabine], the “RVR (undetectable HCV RNA at week 4)” value (CHC genotype 1 or 4 [1]; 500-mg 12-week RVR-guided group, with PEG-IFN/RBV, overall population) was 38%, the “SVR-12 and SVR-24” value (CHC genotype 1 or 4 [1]; CC patients who achieve sRVR and stop all treatment after 24 weeks) was 67-90% and the relapse (CHC genotype 1 or 4 [1]; CC, arm A, 12 weeks followup after EOT) was 2/8. The relapse (CHC genotype 1 or 4 [1]; CC, arm A, 24 weeks followup after EOT) was 2/7, the relapse (CHC genotype 1 or 4 [1]; CC, arm C, 12 weeks followup after EOT) was 4/12 and the relapse (CHC genotype 1 or 4 [1]; CC, arm C, 24 weeks followup after EOT) was 4/12. The “SVR-12 (%)” value (CHC genotype 1 or 4 [1]; [7]) was “(75.0%)”, the “SVR-12 n/N” value (CHC genotype 1 or 4 [1]; [7]) was 6/8 and the “SVR-24 (%)” value (CHC genotype 1 or 4 [1]; [7]) was “(85.7%)”. The “SVR-24 n/N” value (CHC genotype 1 or 4 [1]; [7]) was 6/7, the “SVR-12 (%)” value (CHC genotype 1 or 4 [1]; [8]) was “(66.7%)” and the “SVR-12 n/N” value (CHC genotype 1 or 4 [1]; [8]) was 6/9. The “SVR-24 (%)” value (CHC genotype 1 or 4 [1]; [8]) was “(55.6%)”, the “SVR-24 n/N” value (CHC genotype 1 or 4 [1]; [8]) was 5/9 and the “SVR-12 (%)” value (CHC genotype 1 or 4 [1]; [9]) was “(70.6%)*”. For the same compound, the “SVR-12 n/N” value (CHC genotype 1 or 4 [1]; [9]) was 12/17, the “SVR-24 (%)” value (CHC genotype 1 or 4 [1]; [9]) was “(68.8%)*” and the “SVR-24 n/N” value (CHC genotype 1 or 4 [1]; [9]) was 11/16. For the same compound, the “sRVR (%)” value (CHC genotype 1 or 4 [1]; Group A, RO5024048 500 mg 12 wks + P/R 24/48 wks RVR-guided, N = 49, Total) was “(36.7%)”, the “SVR-12 (%)” value (CHC genotype 1 or 4 [1]; [10]) was “(90.0%)” and the “SVR-12 n/N” value (CHC genotype 1 or 4 [1]; [10]) was 9/10. The “SVR-24 (%)” value (CHC genotype 1 or 4 [1]; [10]) was “(80.0%)”, the “SVR-24 n/N” value (CHC genotype 1 or 4 [1]; [10]) was 8/10 and the “SVR-12 (%)” value (CHC genotype 1 or 4 [1]; [11]) was “(38.5%)”. For the same compound, the “SVR-12 n/N” value (CHC genotype 1 or 4 [1]; [11]) was 5/13, the “SVR-24 (%)” value (CHC genotype 1 or 4 [1]; [11]) was “(25.0%)” and the “SVR-24 n/N” value (CHC genotype 1 or 4 [1]; [11]) was 3/12. The “SVR-12 (%)” value (CHC genotype 1 or 4 [1]; [12]) was “(60.9%)”, the “SVR-12 n/N” value (CHC genotype 1 or 4 [1]; [12]) was 14/23 and the “SVR-24 (%)” value (CHC genotype 1 or 4 [1]; [12]) was “(50.0%)*”. For the same compound, the “SVR-24 n/N” value (CHC genotype 1 or 4 [1]; [12]) was 11/22, the “sRVR (%)” value (CHC genotype 1 or 4 [1]; Group B, RO5024048 1000 mg 8 wks + P/R 24/48 wks RVR-guided, N = 49, Total) was “(46.9%)” and the “SVR-12 n/N” value (CHC genotype 1 or 4 [1]; [13]) was 8/12. The “SVR-24 (%)” value (CHC genotype 1 or 4 [1]; [13]) was “(66.7%)”, the “SVR-24 n/N” value (CHC genotype 1 or 4 [1]; [13]) was 8/12 and the “SVR-12 n/N” value (CHC genotype 1 or 4 [1]; [14]) was 5/18. For the same compound, the “SVR-24 (%)” value (CHC genotype 1 or 4 [1]; [14]) was “(22.2%)”, the “SVR-24 n/N” value (CHC genotype 1 or 4 [1]; [14]) was 4/18 and the “SVR-12 (%)” value (CHC genotype 1 or 4 [1]; [15]) was “(43.3%)”. The “SVR-12 n/N” value (CHC genotype 1 or 4 [1]; [15]) was 13/30, the “SVR-24 (%)” value (CHC genotype 1 or 4 [1]; [15]) was “(40.0%)” and the “SVR-24 n/N” value (CHC genotype 1 or 4 [1]; [15]) was 12/30. The “sRVR (%)” value (CHC genotype 1 or 4 [1]; Group C, RO5024048 1000 mg 12 wks + P/R 24/48 wks RVR-guided, N = 46, Total) was “(65.2%)”, the “SVR-12 and SVR-24” value (CHC genotype 1 or 4 [1]; non-CC patients who achieve sRVR and stop all treatment after 24 weeks) was 22-67% and the relapse (CHC genotype 1 or 4 [1]; non-CC, Arm A, 12 weeks followup after EOT) was 3/9. For the same compound, the relapse (CHC genotype 1 or 4 [1]; non-CC, Arm A, 24 weeks followup after EOT) was 4/9, the relapse (CHC genotype 1 or 4 [1]; non-CC, Arm C, 12 weeks followup after EOT) was 13/18 and the relapse (CHC genotype 1 or 4 [1]; non-CC, Arm C, 24 weeks followup after EOT) was 14/18. The “absorption after oral administration” value [2] was “rapidly absorbed”, the “resistance conferred by NS5B S282T substitution” value (NS5B (S282T)) was “low level resistance” and the “antiviral effect of combination” value (HCV [3]) was “additive antiviral effect”. For the same compound, the IC50 [4] was 610 ± 40 nM, the “in vitro activity across genotypes” value (HCV genotypes (1-4)) was “Activity has been demonstrated” and the cEVR (CHC genotype 1 or 4 [5]; 1000-mg group, RCR-consented population) was 94%. For the same compound, the “SVR-12 n/N” value (CHC genotype 1 or 4 [5]; Group A, 1000 mg 24 wks + P/R RVR-guided, IL28B CC, sRVR patients) was 12/15, the “SVR-12 n/N” value (CHC genotype 1 or 4 [5]; Group A, 1000 mg 24 wks + P/R RVR-guided, IL28B NonCC, sRVR patients) was 13/18 and the “SVR-12 (%)” value (CHC genotype 1 or 4 [5]; [16]) was “(75.0%)*”. For the same compound, the “SVR-12 n/N” value (CHC genotype 1 or 4 [5]; [16]) was 24/32, the “sRVR (%)” value (CHC genotype 1 or 4 [5]; Group A, RO5024048 1000 mg 24 wks + P/R 24/48 wks RVR-guided, N = 52, Total) was “(63.5%)” and the RVR (CHC genotype 1 or 4 [5]; RVR-guided 1000-mg group (24 wks with PEG-IFN/RBV), overall population) was 63%. For the same compound, the cEVR (CHC genotype 1 or 4 [5]; RVR-guided 1000-mg group, overall ITT population) was 89%, the week-24 virological response (CHC genotype 1 or 4 [5]; RVR-guided 1000-mg group, overall population) was 91% and the “maximal rate of undetectable viral load” value (CHC genotype 1 or 4 [5]; non-CC genotype, 24 weeks of triple therapy, at weeks 20 to 24 (data not shown)) was greater than 90%.
In the case of `NC(=O)c1ncn([C@@H]2O[C@H](CO)[C@@H](O)[C@H]2O)n1` [ribavirin, 1-((2R,3R,4S,5R)-3,4-Dihydroxy-5-hydroxymethyl-tetrahydro-furan-2-yl)-1H-[1,2,4]triazole-3-carboxylic acid amide], the “effect on the replication of HCV” value (HCV [6]) is listed as “little or no effect”.
